Laboratory results as given in publication PMC11124870, “Effect of Antioxidants in Medicinal Products on Intestinal Drug Transporters” (Pharmaceutics, 2024).
“And” between values parts separate entries of the source, which are not always exact repeats. Equal entries are not always repeated.

Assays:
[1] = biological target: T1, P-gp (Homo sapiens, UniProt P08183); experiment: Vesicular transport assay, 3H-NMQ uptake in P-gp membrane vesicles; format: biochemical; details: for % Uptake of 3H-NMQ P-gp: antioxidant 200 µM, uptake with DMSO set as 100%, mean ± SD, three replicates, membrane vesicles; for inhibition at 20 min, 200 µM: human, Sf9 membrane vesicles overexpressing human P-gp, pH 7, probe 3H-NMQ, 3H-NMQ
T1 construct: purchased ThermoFisher Scientific GM0015; host or cells: Sf9 membrane vesicles
T1 sequence (P08183 whole entry): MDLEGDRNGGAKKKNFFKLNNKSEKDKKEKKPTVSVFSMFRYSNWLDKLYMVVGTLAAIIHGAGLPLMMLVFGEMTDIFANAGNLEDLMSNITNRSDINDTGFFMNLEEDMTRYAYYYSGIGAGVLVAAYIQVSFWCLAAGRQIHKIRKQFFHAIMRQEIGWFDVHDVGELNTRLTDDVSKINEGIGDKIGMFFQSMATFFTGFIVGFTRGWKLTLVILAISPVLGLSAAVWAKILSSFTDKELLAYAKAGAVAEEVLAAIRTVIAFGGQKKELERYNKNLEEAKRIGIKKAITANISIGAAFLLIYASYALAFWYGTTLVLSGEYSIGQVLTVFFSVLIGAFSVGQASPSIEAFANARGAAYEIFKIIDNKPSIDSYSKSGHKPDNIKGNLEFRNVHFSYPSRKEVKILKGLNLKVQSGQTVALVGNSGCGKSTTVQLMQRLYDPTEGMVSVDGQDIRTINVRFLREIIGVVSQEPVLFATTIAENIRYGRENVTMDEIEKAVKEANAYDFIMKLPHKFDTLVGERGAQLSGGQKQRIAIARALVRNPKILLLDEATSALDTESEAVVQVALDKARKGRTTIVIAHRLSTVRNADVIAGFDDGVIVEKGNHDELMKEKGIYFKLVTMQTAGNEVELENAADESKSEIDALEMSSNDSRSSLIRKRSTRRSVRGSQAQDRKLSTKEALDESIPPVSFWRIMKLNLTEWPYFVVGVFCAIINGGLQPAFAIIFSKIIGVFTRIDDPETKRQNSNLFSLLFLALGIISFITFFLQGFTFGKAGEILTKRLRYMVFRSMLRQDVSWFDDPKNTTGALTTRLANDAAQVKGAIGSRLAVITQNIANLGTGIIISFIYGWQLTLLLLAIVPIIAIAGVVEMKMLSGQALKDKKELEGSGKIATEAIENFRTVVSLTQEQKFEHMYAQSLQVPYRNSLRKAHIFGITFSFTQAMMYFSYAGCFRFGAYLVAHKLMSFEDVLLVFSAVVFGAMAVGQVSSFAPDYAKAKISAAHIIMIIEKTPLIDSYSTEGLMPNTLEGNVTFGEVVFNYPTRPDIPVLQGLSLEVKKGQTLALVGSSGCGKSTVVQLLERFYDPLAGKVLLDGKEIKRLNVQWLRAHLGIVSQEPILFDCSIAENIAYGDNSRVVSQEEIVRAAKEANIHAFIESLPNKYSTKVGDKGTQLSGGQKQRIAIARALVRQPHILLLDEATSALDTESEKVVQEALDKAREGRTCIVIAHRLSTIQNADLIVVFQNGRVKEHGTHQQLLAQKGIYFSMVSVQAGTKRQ
Method: (§1) The vesicular transport assay was performed using Spodoptera frugiperda 9 (Sf9) membrane vesicles overexpressing human P-gp or BCRP, as reported previously with minor modifications. In brief, Isoplate 96-well flat-bottom white plates were preincubated with HBSS containing 0.5 mg/mL BSA on an orbital shaker in a 37 °C incubator at 90 rpm for 60 min followed by washing with HBSS. The assay mixture (75 µL/well) contained a probe substrate and either vehicle control, a known inhibitor of P-gp or BCRP, or an antioxidant, in vesicle uptake buffer (50 mM MOPS-Tris, pH 7.0 + 70 mM KCl + 7.5 mM MgCl2) prewarmed to 37 °C. After addition of the assay mixture, 5 μL/well (5 μg/μL stock concentration of the vesicles) of vesicles overexpressing human P-gp or BCRP was added. Uptake assays were initiated by adding 20 μL of either 25 mM adenosine triphosphate (ATP) or 25 mM adenosine monophosphate (AMP) to a final concentration of 5 mM. Plates were incubated at 37 °C for 20 min with orbital shaking (90 rpm). After 20 min, the uptake was quenched by adding 150 μL of ice-cold wash buffer (40 mM MOPS-Tris, pH 7.0 + 70 mM KCl) to each well, and the mixture was transferred to a 96-well filtration plate. Vacuum was applied, and the vesicles were washed three times with wash buffer. Vesicles were then lysed with 100 µL of MicroScint-20.

[2] = Estimation of intestinal luminal concentration (Igut), dose/250 mL; details: estimated from maximum oral amount (AP 10 mg, BHA 8 mg) in 250 mL intestinal fluid
Method: Igut is intestinal luminal concentration estimated as dose/250 mL. The Igut concentration was estimated using the following equation: Igut=A÷MW×V×10^6 where Igut is the estimated intestinal luminal concentration (µM), A is the amount of antioxidant in an oral dosage (mg), MW is the molecular weight, and V is the volume of intestinal fluid, i.e., 250 mL.

[3] = Table S1; source not stated; cited from earlier work
[4] = biological target: T2, OATP2B1 (Homo sapiens, UniProt O94956); experiment: 3H-valsartan uptake inhibition in HEK-293-OATP2B1 cells; details: IC50 OATP2B1, valsartan uptake, substrate 3H-valsartan, three independent experiments
T2 sequence (O94956 1-709): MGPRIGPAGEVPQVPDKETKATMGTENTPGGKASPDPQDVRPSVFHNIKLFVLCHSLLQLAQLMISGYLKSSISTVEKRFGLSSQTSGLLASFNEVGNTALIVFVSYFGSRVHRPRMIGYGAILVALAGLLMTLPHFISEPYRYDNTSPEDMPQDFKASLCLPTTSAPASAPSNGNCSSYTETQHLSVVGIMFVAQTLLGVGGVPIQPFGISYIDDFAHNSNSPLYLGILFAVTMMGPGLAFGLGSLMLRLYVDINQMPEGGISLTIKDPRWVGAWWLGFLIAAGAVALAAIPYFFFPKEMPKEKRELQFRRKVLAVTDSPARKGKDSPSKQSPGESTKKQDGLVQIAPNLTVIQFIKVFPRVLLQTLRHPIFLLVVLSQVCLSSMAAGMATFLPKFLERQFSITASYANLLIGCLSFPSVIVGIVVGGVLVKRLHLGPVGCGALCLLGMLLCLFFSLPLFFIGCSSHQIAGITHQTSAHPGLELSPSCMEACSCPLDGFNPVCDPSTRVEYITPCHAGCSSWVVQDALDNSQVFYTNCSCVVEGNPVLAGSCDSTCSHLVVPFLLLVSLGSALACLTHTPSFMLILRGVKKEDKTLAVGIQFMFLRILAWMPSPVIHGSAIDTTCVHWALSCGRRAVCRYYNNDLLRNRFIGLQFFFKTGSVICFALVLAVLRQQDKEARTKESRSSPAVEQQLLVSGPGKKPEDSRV
Method: (§2) The uptake transporter assay was performed as reported previously with minor modifications [15]. A day before the uptake assay, Isoplate 96-well plates were coated with poly-D-lysine in PBS with calcium and magnesium and washed with PBS. […] An assay mixture of ^3H-estrone sulfate, a known inhibitor of OATP2B1, or an antioxidant was prepared and incubated in a 37 °C incubator for 10 min. The cells were washed with ice-cold HBSS three times and incubated with MicroScint fluid on a shaker for 1 h for cell lysis. Radioactivity was measured by liquid scintillation counting with a MicroBeta^2® microplate counter. […] On the day of experiment, cells were washed twice with 0.4 mL of HBSS per well and then pre-incubated for 10–20 min in 0.4 mL of HBSS. […] Uptake of ^3H-valsartan was stopped after 15 min by washing three times with ice-cold HBSS. Cells were lysed in 750 µL of lysis buffer (0.1 N NaOH and 0.1% SDS in double-distilled water) per well while shaking for 60 min. A total of 690 µL of the lysate from each well was then added to 2.5 mL of EcoLite scintillation fluid. The radioactivity was determined on a LS6500 Scintillation Counter (Beckman Coulter). Protein concentration was measured with a Pierce™ BCA protein assay kit. The radioactivity in each well was corrected for protein concentration. All values were determined in triplicate, and the final values are expressed as % uptake relative to negative control (1% DMSO).
(§3) Antioxidants were screened at a concentration of 200 μM.

[5] = biological target: T2, OATP2B1; experiment: Uptake transporter assay, 3H-estrone sulfate uptake in HEK-293-OATP2B1 cells; details: for % Uptake of 3H-ES OATP2B1: antioxidant 200 µM, uptake with DMSO set as 100%, mean ± SD, three replicates, HEK-293-OATP2B1 cells
Method: as §2, §3

[6] = biological target: T3, BCRP (Homo sapiens, UniProt Q9UNQ0); experiment: Vesicular transport assay, 3H-CCK8 uptake in BCRP membrane vesicles; format: biochemical; set-up: purchased ThermoFisher Scientific GM0008; host or cells: Sf9 membrane vesicles; details: for % Uptake of 3H-CCK8 BCRP: antioxidant 200 µM, uptake with DMSO set as 100%, mean ± SD, three replicates, membrane vesicles; for inhibition at 20 min, 200 µM: human, Sf9 membrane vesicles overexpressing human BCRP, pH 7, probe 3H-CCK8, 3H-CCK8
T3 sequence (Q9UNQ0 1-655): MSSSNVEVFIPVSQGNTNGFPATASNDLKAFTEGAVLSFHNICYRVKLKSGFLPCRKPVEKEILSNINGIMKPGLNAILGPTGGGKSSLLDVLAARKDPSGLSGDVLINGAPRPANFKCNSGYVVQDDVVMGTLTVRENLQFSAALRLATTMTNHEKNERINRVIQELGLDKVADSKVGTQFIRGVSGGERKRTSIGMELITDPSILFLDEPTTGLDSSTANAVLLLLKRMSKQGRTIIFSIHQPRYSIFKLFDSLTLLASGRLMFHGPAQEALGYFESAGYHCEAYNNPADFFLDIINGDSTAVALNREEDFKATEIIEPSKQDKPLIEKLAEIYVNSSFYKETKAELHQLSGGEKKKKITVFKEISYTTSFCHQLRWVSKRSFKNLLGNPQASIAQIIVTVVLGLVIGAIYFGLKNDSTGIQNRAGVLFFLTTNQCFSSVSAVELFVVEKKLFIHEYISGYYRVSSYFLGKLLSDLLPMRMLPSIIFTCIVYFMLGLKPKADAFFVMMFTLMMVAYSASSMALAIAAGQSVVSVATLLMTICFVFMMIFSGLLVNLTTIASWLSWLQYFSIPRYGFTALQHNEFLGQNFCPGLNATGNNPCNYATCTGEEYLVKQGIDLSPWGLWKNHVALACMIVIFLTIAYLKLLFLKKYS
Method: as §1

[7] = tested on: P-gp; set-up: method as in PMID 19944162; details: cited from earlier work

Row | Max Intestinal Conc (µM) in 250 mL Fluid [2] [µM] | IC50 [4] | IC50 ([5]; IC50 OATP2B1, substrate 3H-estrone sulfate, mean ± SD of three independent experiments) [µM] | IC50 ([5]; IC50 with preincubation, OATP2B1 expressing cells pre-incubated 30 minutes, mean ± SD of three independent experiments) [µM] | IC50 at 10 min ([5]; human, HEK-293 cells that express OATP2B1, probe 3H-estrone sulfate, IC50 without preincubation, OATP2B1 expressing cells, mean ± SD of three independent experiments) [µM] | inhibition at 10 min, 200 µM ([5]; human, HEK-293 cells that express OATP2B1, probe 3H-estrone sulfate, Inhibition of OATP2B1, 200 µM, 3H-estrone sulfate) [%] | Compound | % Uptake of 3H-NMQ P-gp [1] [%] | inhibition at 20 min, 200 µM [1] [%] | LogP [3] | Effect of 30 min pre-incubation on inhibition potency ([5]; OATP2B1-expressing cells pre-incubated for 30 min) | % Uptake of 3H-ES OATP2B1 [5] [%] | % Uptake of 3H-CCK8 BCRP [6] [%] | inhibition at 20 min, 200 µM [6] [%] | P-gp inhibition in ATPase assays [7] | inhibition at 10 min, 200 µM ([5]; human, HEK-293 cells that express OATP2B1, probe 3H-estrone sulfate) [%]
1 | 96.5 | 26 µM and 25.5 µM | 23 ± 10 | 95 ± 11.7 | 159 ± 65.9 | > 50 | CCCCCCCCCCCCCCCC(=O)OC[C@H](O)[C@H]1OC(=O)C(O)=C1O [Ascorbyl palmitate (AP), Ascorbyl palmitate] | 86.9 ± 12.4 | < 50 | 6 | did not further affect their inhibition potency | 28.3 ± 11.2 | 50.9 ± 9.9 | < 50 |  | 
2 |  |  |  |  |  |  | CC(C)c1cc2c(c(O)c1O)[C@@]1(C(=O)O)CCCC(C)(C)[C@@H]1CC2 [Carnosic acid] | 0.0 ± 10.1 | ≥ 50 | 4.9 |  | 18.8 ± 5.6 | 4.5 ± 4.8 | ≥ 50 | identified as a P-gp inhibitor | ≥ 50
